From patent US9067949B2, “Benzofuro[3,2-c] pyridines and related analogs as serotonin sub-type 6 (5-HT6) modulators for the treatment of obesity, metabolic syndrome, cognition and schizophrenia” (Albany Molecular Research, Inc., priority 2011, dated 2015)
Where a name gives a salt, the structure may show the parent alone.

target: human 5-HT6 receptor (Homo sapiens (Human), UniProt P50406); assay: 5-HT6 radioligand binding assay (SPA format, [N-methyl-3H]-LSD); settings: human 5-HT6 receptor membranes, 10 nM [N-methyl-3H]-LSD; Ki by Cheng-Prusoff; hydrochloride; read-out: human 5HT6 Ki
Sequence (P50406 whole entry): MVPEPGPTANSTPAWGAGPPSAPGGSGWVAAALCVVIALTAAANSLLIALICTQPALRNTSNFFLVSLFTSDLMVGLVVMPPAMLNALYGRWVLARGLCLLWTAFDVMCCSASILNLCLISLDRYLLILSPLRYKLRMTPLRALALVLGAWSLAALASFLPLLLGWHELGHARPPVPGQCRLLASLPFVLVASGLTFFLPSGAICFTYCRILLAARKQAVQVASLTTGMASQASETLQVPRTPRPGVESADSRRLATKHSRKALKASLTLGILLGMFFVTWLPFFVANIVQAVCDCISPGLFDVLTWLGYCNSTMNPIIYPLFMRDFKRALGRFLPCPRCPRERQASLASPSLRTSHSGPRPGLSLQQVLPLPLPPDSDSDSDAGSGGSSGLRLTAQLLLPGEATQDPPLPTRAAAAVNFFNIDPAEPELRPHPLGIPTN
Description: The relative affinities of the various compounds for the 5-HT6 receptor were measured in a radioligand binding assay, using a scintillation proximity assay (SPA) format.
For binding analysis vs. the human receptor, samples were incubated in 50 mM Tris-HCl, pH 7.5, 5 mM MgCl2, 1 mM EDTA (4% DMSO final) with 10 nM [N-methyl-^3H]-LSD (Perkin Elmer), 2.5 ng of human 5-HT6 receptor membranes (Millipore) and 50 μg SPA beads (PVT-PEI-WGA, GE Healthcare) per well in a final volume of 0.2 mL. […] Binding reactions were performed in PicoPlate96 microtiter plates (Perkin Elmer) by consecutively adding 50 μL of each competing compound or buffer, SPA beads, radioligand and 5-HT6 receptor membranes. After an overnight incubation at room temperature on a Nutator mixer, plates were centrifuged for 15 min at 1,500 rpm, followed by incubation in the dark for 10 min. […] Total binding control contained compound dilution buffer only; nonspecific binding is determined in the presence of 100 μM 5-hydroxytryptamine. Specific binding was determined by subtracting nonspecific binding from total binding.
All experiments were performed in duplicate using ten concentrations of competing ligand, with clozapine included as a control in every run. IC50 values were determined from specific binding data using XLfit4.1 curve fitting software from IDBS Ltd. The inhibition constant (Ki) was calculated using the Cheng-Prusoff equation: (Ki=IC50/(1+(L/KD)), where L=concentration of radioligand in the assay, and KD=affinity of the radioligand for the receptor.

Structure (SMILES) | Ki [nM]
CC1Cc2oc3c(Cl)cc(S(=O)(=O)c4ccccc4)cc3c2CN1.Cl (single isomer, unassigned; (-)) [Example 83a, (−) 6-chloro-3-methyl-8-(phenylsulfonyl)-1,2,3,4-tetrahydrobenzofuro[3,2-c]pyridine hydrochloride] | 25

same assay, conditions: human 5-HT6 receptor membranes, 10 nM [N-methyl-3H]-LSD; Ki by Cheng-Prusoff; read-out: human 5HT6 Ki

Structure (SMILES) | Ki [nM]
CN1CCc2oc3ccc(S(=O)(=O)c4ccccc4)cc3c2C1.Cl [Example 27, 2-Methyl-8-(phenylsulfonyl)-1,2,3,4-tetrahydrobenzofuro[3,2c]pyridine hydrochloride] | 6.5
Cl.O=S(=O)(c1ccc(Cl)cc1)c1ccc2oc3c(c2c1)CNCC3 [Example 32, 8-(4-Chlorophenylsulfonyl)-1,2,3,4-tetrahydrobenzofuro[3,2-c]pyridine hydrochloride] | 38
Cl.O=S(=O)(c1ccc2ccccc2c1)c1ccc2oc3c(c2c1)CNCC3 [Example 40, 8-(2-Naphthylsulfonyl)-1,2,3,4-tetrahydrobenzofuro[3,2-c]pyridine hydrochloride] | 21
CN1CCc2oc3cc(S(=O)(=O)c4ccccc4)ccc3c2C1.Cl [Example 61, 2-Methyl-7-(phenylsulfonyl)-1,2,3,4-tetrahydrobenzofuro[3,2-c]pyridine hydrochloride] | 18
Cl.OC(c1ccccc1)c1cc(Cl)c2oc3c(c2c1)CNCC3 (centres unmarked) [Example 94, (6-chloro-1,2,3,4-tetrahydrobenzofuro[3,2-c]pyridin-8-yl)(phenyl)methanol hydrochloride] | 143
Cl.O=S(=O)(c1ccc2oc3c(c2c1)C1CCC(C3)N1)n1ccc2ccc(F)cc21 (centres unmarked) [Example 59, 2-(6-Fluoro-1H-indol-1-yl)sulfonyl-6,7,8,9,10-pentahydro-7,10-epiminocyclohepta[b]benzofuran hydrochloride] | 17
Cl.O=S(=O)(c1ccccc1)c1cc(Cn2cccn2)c2oc3c(c2c1)CNCC3 [Example 75, 6-((1H-pyrazol-1-yl)methyl)-8-(phenylsulfonyl)-1,2,3,4-tetrahydrobenzofuro[3,2-c]pyridine hydrochloride] | 124
N#Cc1cc(S(=O)(=O)c2ccccc2)cc2c3c(oc12)CCNC3 [Example 210] | 4.2
CS(=O)(=O)N1CCc2oc3c(Cl)cc(S(=O)(=O)c4ccccc4)cc3c2C1 [Example 144] | 492
O=S(=O)(c1cc(F)cc(Cl)c1)c1cc(Cl)c2oc3c(c2c1)CNCC3 [Example 125] | 2.3
Cc1cc(S(=O)(=O)c2ccc(F)cc2)cc2c3c(oc12)CCNC3 [Example 203] | 1.5
O=S(=O)(c1ccc(CO)cc1)c1cc(Cl)c2oc3c(c2c1)CNCC3 [Example 72, (4-((6-chloro-1,2,3,4-tetrahydrobenzofuro[3,2-c]pyridin-8-yl)sulfonyl)phenyl)methanol hydrochloride] | 12
O=S(=O)(c1ccc(C2CCOC2)cc1)c1cc(Cl)c2oc3c(c2c1)CNCC3 (centres unmarked) [Example 154] | 5.6
COCCN1CCc2oc3c(Cl)cc(S(=O)(=O)c4ccccc4)cc3c2C1 [Example 149] | 1.6
COc1cc([S+]([O-])c2ccccc2)cc2c3c(oc12)CCNC3 (centres unmarked) [Example 235] | 1.1
O=S(=O)(c1ccccc1)c1cc(Cl)c2oc3c(c2c1)CN(CCC(F)(F)F)CC3 [Example 114] | 19
O=S(=O)(c1cncc(C(F)(F)F)c1)c1cc(Cl)c2oc3c(c2c1)CNCC3 [Example 121] | 29
CN(C)C(=O)c1cc(S(=O)(=O)c2ccccc2)cc2c3c(oc12)CCNC3 [Example 223] | 1110
Cc1cc(S(=O)(=O)c2ccc(F)c(F)c2)cc2c3c(oc12)CCNC3 [Example 199] | 2
N#Cc1cc(S(=O)(=O)c2cccc(Cl)c2)cc2c3c(oc12)CCNC3 [Example 213] | 1.9
CN(C)C(=O)CN1CCc2oc3c(Cl)cc(S(=O)(=O)c4ccccc4)cc3c2C1 [Example 148] | 45
O=S(=O)(c1ccccc1)c1cc(Cl)c2oc3c(c2c1)CNC(CO)C3 (centres unmarked) [Example 86, (6-chloro-8-(phenylsulfonyl)-1,2,3,4-tetrahydrobenzofuro[3,2-c]pyridin-3-yl)methanol hydrochloride] | 522

Structure (SMILES) | Ki [nM]
O=S(=O)(c1cc(Cl)c2oc3c(c2c1)CNCC3)c1ccccc1OC(F)(F)F [Example 102] | 3.3
N#Cc1cc(S(=O)(=O)c2cc(F)cc(F)c2)cc2c3c(oc12)CCNC3 [Example 208] | 50
NC(=O)c1cc(S(=O)(=O)c2ccccc2)cc2c3c(oc12)CCNC3 [Example 222] | 307
C=C(C)c1cccc(S(=O)(=O)c2cc(Cl)c3oc4c(c3c2)CNCC4)c1 [Example 157] | 0.66
COc1cc(S(=O)(=O)c2ccc(OC(F)(F)F)cc2)cc2c3c(oc12)CCNC3 [Example 165] | 1.9
Cc1cc(S(=O)(=O)c2cccc(F)c2)cc2c3c(oc12)CCNC3 [Example 200] | 0.5
COc1cc(S(=O)(=O)c2ccc3c(c2)COC3)cc2c3c(oc12)CCNC3 [Example 193] | 0.8
N#Cc1cc(S(=O)(=O)c2ccc(F)cc2)cc2c3c(oc12)CCNC3 [Example 209] | 18
COc1cc(Sc2ccccc2)cc2c3c(oc12)CCNC3 [Example 230] | 1.9
Cn1ncc2cc(S(=O)(=O)c3cc(Cl)c4oc5c(c4c3)CNCC5)ccc21 [Example 124] | 37
COc1cc(S(=O)(=O)c2ccc3sccc3c2)cc2c3c(oc12)CCNC3 [Example 184] | 0.16
O=S(=O)(c1ccc(C2CCO2)cc1)c1cc(Cl)c2oc3c(c2c1)CNCC3 (centres unmarked) [Example 126] | 10
COc1cc([S+]([O-])c2ccccc2)cc2c3c(oc12)CCNC3 (centres unmarked) [Example 234] | 7.4
O=S(=O)(c1cc(F)cc(F)c1)c1cc(Cl)c2oc3c(c2c1)CNCC3 [Example 129] | 9.9
Cc1cc(S(=O)(=O)c2ccc(Cl)cc2)cc2c3c(oc12)CCNC3 [Example 196] | 1.1
O=S(=O)(c1ccccc1)c1cc(Cn2ccnc2)c2oc3c(c2c1)CNCC3 [Example 229] | 64
COc1cc(S(=O)(=O)c2cccc([C@@H](C)O)c2)cc2c3c(oc12)CCNC3 [Example 174] | 0.69
CC(=O)N1CCc2oc3c(Cl)cc(S(=O)(=O)c4cn(C)c5ccccc45)cc3c2C1 [Example 155] | 167
COc1cc([S+]([O-])c2ccccc2)cc2c3c(oc12)CCNC3 (centres unmarked) [Example 233] | 2.4
O=S(=O)(c1ccccc1)c1cc(-c2cn[nH]c2)c2oc3c(c2c1)CNCC3 [Example 77, 8-(phenylsulfonyl)-6-(1H-pyrazol-4-yl)-1,2,3,4-tetrahydrobenzofuro[3,2-c]pyridine hydrochloride] | 28
O=S(=O)(c1cc(Cl)c2oc3c(c2c1)CNCC3)n1ccc2ccccc21 [Example 51, 8-(1H-Indol-1-ylsulfonyl)-6-chloro-1,2,3,4-tetrahydrobenzofuro[3,2-c]pyridine hydrochloride] | 0.2
CC(CO)N1CCc2oc3c(Cl)cc(S(=O)(=O)c4ccccc4)cc3c2C1 (centres unmarked) [Example 152] | 3.4

system: not given; assay: not given; settings: not given

Structure (SMILES) | melting point
CN1CCc2oc3ccc(S(=O)(=O)c4ccccc4)cc3c2C1.Cl [Example 27, 2-Methyl-8-(phenylsulfonyl)-1,2,3,4-tetrahydrobenzofuro[3,2c]pyridine hydrochloride] | 272 °C
CC1Cc2oc3c(Cl)cc(S(=O)(=O)c4ccccc4)cc3c2CN1.Cl (single isomer, unassigned; (-)) [Example 83a, (−) 6-chloro-3-methyl-8-(phenylsulfonyl)-1,2,3,4-tetrahydrobenzofuro[3,2-c]pyridine hydrochloride] | 293 °C (dec.)
Cl.O=S(=O)(c1ccc(Cl)cc1)c1ccc2oc3c(c2c1)CNCC3 [Example 32, 8-(4-Chlorophenylsulfonyl)-1,2,3,4-tetrahydrobenzofuro[3,2-c]pyridine hydrochloride] | 302 to 305 °C
Cl.O=S(=O)(c1ccc2ccccc2c1)c1ccc2oc3c(c2c1)CNCC3 [Example 40, 8-(2-Naphthylsulfonyl)-1,2,3,4-tetrahydrobenzofuro[3,2-c]pyridine hydrochloride] | 267 to 270 °C
CN1CCc2oc3cc(S(=O)(=O)c4ccccc4)ccc3c2C1.Cl [Example 61, 2-Methyl-7-(phenylsulfonyl)-1,2,3,4-tetrahydrobenzofuro[3,2-c]pyridine hydrochloride] | 242 to 245 °C
Cl.OC(c1ccccc1)c1cc(Cl)c2oc3c(c2c1)CNCC3 (centres unmarked) [Example 94, (6-chloro-1,2,3,4-tetrahydrobenzofuro[3,2-c]pyridin-8-yl)(phenyl)methanol hydrochloride] | 260 °C (dec.)
Cl.O=S(=O)(c1ccc2oc3c(c2c1)C1CCC(C3)N1)n1ccc2ccc(F)cc21 (centres unmarked) [Example 59, 2-(6-Fluoro-1H-indol-1-yl)sulfonyl-6,7,8,9,10-pentahydro-7,10-epiminocyclohepta[b]benzofuran hydrochloride] | 184 to 187 °C
Cl.O=S(=O)(c1ccccc1)c1cc(Cn2cccn2)c2oc3c(c2c1)CNCC3 [Example 75, 6-((1H-pyrazol-1-yl)methyl)-8-(phenylsulfonyl)-1,2,3,4-tetrahydrobenzofuro[3,2-c]pyridine hydrochloride] | 145 to 148 °C
